Read-outs that look alike come from different tables or passages of the source.
Tests used:
[1] = test system: oedema produced by carrageenin; test: Anti-inflammatory activity (inhibition of oedema produced by carrageenin), method of Winter; format: in vivo, Male rats of the Sprague-Dawley HC/CEY strain; settings: Rattus norvegicus, oral, 1 hour before carrageenin, ED-50 = dose which reduces the oedema volume by 25%
Method: ANTI-INFLAMMATORY ACTIVITY (INHIBITION OF OEDEMA PRODUCED BY CARRAGEENIN)
Method developed by Winter (Winter, C. A., Risley, E. A. and Nuss, G. W. Proc. Soc. Exp. Biol. Med., […] (1962)).
Male rats of the Sprague-Dawley HC/CEY strain are used, weighing from 90 to 110 g. The products are administered suspended in 5% gum arabic, by an oral method using an oesophageal probe, 1 hour before a subplantar injection in the right foot of each animal of 0.1 ml of 1% carrageenin suspension in physiological serum (NaCl 0.9%). The control animals are given 5% gum arabic, the total volume which is used in every case amounting to 10 ml/kg.
The volume of each foot is measured immediately before the carrageenin injection (time 0), then three and five hours after this injection using a mercury plethysmograph.
The inflammation index is calculated for each animal after 3 hours (I3) and after 5 hours (I5) after the carrageenin injection by means of the following formulae: [formula] wherein: VO =volume of the foot at time zero (immediately before the administration of carrageenin)
V3 =volume of the foot 3 hours after the injection of carrageenin
V5 =volume of the foot 5 hours after the injection of carrageenin.
The average inflammation index is calculated for the control batch after 3 hours (It3) and after 5 hours (It5).
The percentage of inhibition of the oedema (anti-inflammatory activity) is calculated for each animal by means of the formulae: [formula] wherein: A3 =anti-inflammatory activity in percentage of inhibition of the oedema after 3 hours
A5 =anti-inflammatory activity in percentage of inhibition of the oedema after 5 hours.
The anti-inflammatory activity is proportional to the logarithm of the administered dose. The dose which reduces the volume of the odema by 25% is obtained from the curve of dose logarithm-% effect. This dose is adopted as ED-50, since the maximum effect which is achieved is the reduction of the oedema by 50%.

[2] = test system: pain induced by acetyl choline; test: Analgesic activity with respect to the pain induced by acetyl choline (contortions), method of Collier; format: in vivo, Male mice of the Swiss strain; settings: Mus musculus, po, dose which reduces the number of contortions to half the initial value
Method: Analgesic activity with respect to the pain induced by acetyl choline
Method developed by Collier (Collier, H. O. W. Dinneen, L. C. Johnson, C. A. and Schneider, C.--Br. J. Pharmac. Chemother., 32, 295-310 (1968)).
Male mice of the Swiss strain are used, weighing from 20 to 25 g. The mice are put into individual cages. A volume of 0.2 ml/20 g of a solution of acetyl choline bromide of 0.32 mg/ml is administered intraperitoneally to each animal. Thus, the injected dose of acetyl choline bromide is 3.2 mg/kg. The number of contortions or stretches performed by each mouse is counted over a period of 5 minutes. After 5 minutes, the products are administered using 5% gum arabic as a vehicle. After 40 and 120 minutes of administration of the products, another injection of acetyl choline is given and the number of contortions which are observed over a period of 5 minutes is counted.
The percentage of inhibition of the number of contortions after 40 and 120 minutes is calculated for each animal using the following formulae: [formula] wherein: NO =number of contortions before the product is administered
N40 =number of contortions 40 minutes after administration of the product
N120 =number of contortions 120 minutes after administration of the product.
The percentage of inhibition of the contortions is directly proportional to the logarithm of the administered dose. The dose which reduces the number of contortions to half the initial value (ED-50) is obtained from the curve of dose logarithm-% effect.

[3] = molecular target: T1, prostaglandin-synthetase (1.14.99.1) (Bos taurus, UniProt O62664); test: Inhibition of the prostaglandin-synthetase of seminal vesicle of cattle, method of Yoshimoto; format: biochemical; settings: in vitro; 37° C., 5 minutes contact of enzyme with product, then 10 minutes incubation with arachidonic acid; pH 8.0
T1 construct: Prostaglandin-Synthetase of Seminal Vesicle of Cattle; from tissue; host or cells: seminal vesicle of cattle
T1 sequence (O62664 25-600): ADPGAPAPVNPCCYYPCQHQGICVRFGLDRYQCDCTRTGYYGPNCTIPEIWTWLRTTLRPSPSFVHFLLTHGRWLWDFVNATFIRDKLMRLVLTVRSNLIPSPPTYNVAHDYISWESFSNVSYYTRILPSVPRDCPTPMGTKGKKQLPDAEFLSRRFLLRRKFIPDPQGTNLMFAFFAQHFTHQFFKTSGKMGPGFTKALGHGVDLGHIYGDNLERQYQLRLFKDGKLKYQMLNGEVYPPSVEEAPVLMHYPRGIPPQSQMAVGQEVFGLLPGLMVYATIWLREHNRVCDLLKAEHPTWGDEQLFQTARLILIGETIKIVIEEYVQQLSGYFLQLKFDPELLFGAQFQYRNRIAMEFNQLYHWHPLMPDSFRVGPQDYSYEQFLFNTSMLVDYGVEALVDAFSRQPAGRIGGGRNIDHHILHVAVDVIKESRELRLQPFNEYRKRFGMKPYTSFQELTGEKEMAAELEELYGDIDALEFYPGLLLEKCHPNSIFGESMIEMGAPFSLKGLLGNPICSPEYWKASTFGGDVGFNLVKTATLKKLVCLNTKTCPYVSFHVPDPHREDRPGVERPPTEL
Method: Inhibition of the Prostaglandin-Synthetase of Seminal Vesicle of Cattle
The activity of the prostaglandin-synthetase (1.14.99.1) is determined by measuring the increases in absorbance at 278 nm due to the formation of prostaglandin B from prostaglandin E in an alkaline medium.
The incubation temperature was 37±0.1° C. in every case.
0.5 ml of substrate solution (0.6 mg of arachidonic acid in 10 ml of buffer) and 0.5 ml of buffer are added to 1.5 ml of cofactor solution (0.55 mg of hydroquinone+0.5 mg of hemoglobin+7.7 mg of glutathione in 12 ml of 0.2M Tris-HCl buffer of pH 8.0), containing 10 mg of enzyme, and the mixture is incubated at 37° C. for 10 minutes. The enzymatic reaction is stopped by the addition of 1.5 ml of 0.2M citric acid and the pGE is extracted with 2×5 ml of ethyl acetate. The organic phase is evaporated under a stream of nitrogen at 40° C. and the residue is redissolved in 2 ml of methanol and 0.5 ml of 3M potassium hydroxide. Finally, the absorptions at 278 nm are measured with respect to a blank to which 0.5 ml of buffer are added instead of 0.5 ml of substrate solution.
The enzymatic activity is expressed as an increase in the optical density for 10 minutes of reaction.
The subsequent stages are identical to those which have already been described. […]

[4] = 3 hours after carrageenin injection, read-out: ED-50 3 hours
[5] = 5 hours after carrageenin injection, read-out: ED-50 5 hours
[6] = 40 min, 40 minutes after administration, read-out: ED-50 40 min.
[7] = 2 h, 120 minutes after administration, read-out: ED-50 120 min.

IC50 [3]	Structure (SMILES)	ED50 [1, 4]	ED50 [1, 5]	ED50 [2, 6]	ED50 [2, 7]
	CCN1c2c(oc(=O)n(-c3ccccn3)c2=O)-c2ccccc2S1(=O)=O [Example 1, 5-ethyl-3-(2-pyridyl)-2H,5H-1,3-oxazino[5,6-c][1,2]benzothiazine-2,4-(3H)dione-6,6-dioxide]	> 40 mg/kg	> 40 mg/kg	> 160 mg/kg	> 160 mg/kg
100 µM	CN1c2c(oc(=O)n(-c3ccccn3)c2=O)-c2ccccc2S1(=O)=O [Example 2, 5-methyl-3-(2-pyridyl)-2H,5H-1,3-oxazino[5,6-c][1,2]benzothiazine-2,4-(3H)dione-6,6-dioxide]	2.3 mg/kg	2.6 mg/kg	1.8 mg/kg	1.1 mg/kg
	CN1c2c(oc(=S)n(-c3ccccn3)c2=O)-c2ccccc2S1(=O)=O [Example 3, 5-methyl-3-(2-pyridyl)-2H,5H-1,3-oxazino[5,6-c][1,2]benzothiazine-2(3H)thione-4-one-6,6-dioxide]	> 40 mg/kg	> 40 mg/kg	25 mg/kg	25 mg/kg
	Cc1cc(-n2c(=O)oc3c(c2=O)N(C)S(=O)(=O)c2ccccc2-3)no1 [Example 4, 5-methyl-3-[3-(5-methylisoxazolyl)]-2H,5H-1,3-oxazino[5,6-c][1,2]benzothiazine-2,4-(3H)dione-6,6-dioxide]	38 mg/kg	39 mg/kg	154 mg/kg	154 mg/kg
	CN1c2c(oc(=O)n(-c3ncccn3)c2=O)-c2ccccc2S1(=O)=O [Example 5, 5-methyl-3-(2-pyrimidinyl)-2H,5H-1,3-oxazino[5,6-c][1,2]benzothiazine-2,4-(3H)dione-6,6-dioxide]	> 40 mg/kg	> 40 mg/kg	> 160 mg/kg	> 160 mg/kg
	Cc1ccnc(-n2c(=O)oc3c(c2=O)N(C)S(=O)(=O)c2ccccc2-3)c1 [Example 6, 5-methyl-3-[2-(4-methylpyridyl)]-2H,5H-1,3-oxazino[5,6-c][1,2]benzothiazine-2,4-(3H)dione-6,6-dioxide]	> 40 mg/kg	> 40 mg/kg	> 160 mg/kg	> 160 mg/kg
	Cc1cccc(-n2c(=O)oc3c(c2=O)N(C)S(=O)(=O)c2ccccc2-3)n1 [Example 7, 5-methyl-3-[2-(6-methylpyridyl)]-2H,5H-1,3-oxazino[5,6-c][1,2]benzothiazine-2,4-(3H)dione-6,6-dioxide]	20 mg/kg	25 mg/kg	7.5 mg/kg	10 mg/kg
300 µM	CCCCC1C(=O)N(c2ccccc2)N(c2ccccc2)C1=O [Phenylbutazone, reference compound]	17 mg/kg	17 mg/kg	40 mg/kg	35 mg/kg
